In patent US5583142A, “Analgesic and nootropic drugs” (priority 1992, dated 1996):
Values joined by “and” are separate entries in the source; they are usually repeats but may differ in a detail not shown here. Identical values can stand only once. Counter-ions that a name gives are not always drawn. Like-named read-outs stand apart in the source and are kept apart here.

Columns and labels:
[1] = guinea-pig paw-pressure test; format: in vivo; details: guinea-pig, 20 mg/kg i.p.
Experimental: (§1) The analgesic action was detected in mouse, rat, guinea pig and dog. The mouse was subjected to hot plate and writhing tests; the rat to tail-flick and paw-pressure tests; the guinea pig to paw-pressure test only; the dog to the test described by Vainio et al. [J. Vet. Pharmacol. Ther., 12, 225-231 (1989)] using an electric stimulation. Consequently, the claimed compounds were tested with pain being induced by stimuli of different nature: thermal (hot plate and tail flick), chemical (writhing by acetic acid), mechanical (paw pressure) and electrical (cutaneous stimulation).
Effect of SM21 and PG9 in guineapig pawpressure test. *P < 0.01; P < 0.0
in comparison with saline controls. The number of guineapig is in […]

[2] = paw-pressure test in rats with a lesion in the nucleus basalis magnocellularis (NBM); format: in vivo, rat; details: 30 mg/kg i.p.
Text: 3. […] In fact, as known, the magnocellular basal nucleus destruction causes the degeneration of most central cholinergic system.

[3] = format: in vivo, mouse; details: for Efficacy as analgesic (Morphine = 100), AUC (Area Under Curve) / Efficacy as analgesic (Morphine = 100), M.E. (Maximum Analgesic Effect) / hot-plate latency: mouse; for Efficacy as analgesic (Morphine = 100), AUC (Area Under Curve) / Efficacy as analgesic (Morphine = 100), M.E. (Maximum Analgesic Effect): in vivo
Experimental: as §1
(§2) Potency, efficacy and toxicity of SM21, PG9 and SM32 in comparison with
(§3) four principal reference analgesic drugs tested in mouse. As analgesic

[4] = mouse rota-rod test (16 r.p.m.)
Text: All products tested to detect their antinociceptive activity had been previously tested by the rota-rod test to determine their maximum utilizable dose in analgesic tests. In fact, by this test it is possible to determine the highest dose of drug not impairing the normal performance of animals in a test that simultaneously evaluates motor coordination, equilibrium, resistance to fatigue, and muscle strength. This test is meant to evaluate the capability of mice to stay balanced on a rotating rod [cf. Vaught et al., Neuropharmacology, 24 (3) 211-216 (1985)].
The calculated doses were those used in the two analgesic tests on mice.

rat paw-pressure test = format: in vivo
Experimental: as §1
(§4) As already mentioned, the claimed products were assayed also in rat by the paw-pressure and tail-flick tests.
(§5) Both tests were carried out with the max. doses not impairing the rats normal behaviour. […] The painful stimulus utilized in the paw-pressure test involved the animal consciousness to a much greater extent than the stimulus used in the tail-flick test, in fact, the type and anatomic localization of the latter mainly involved a spinal response.
(§6) Both tests on rats were carried out with the max. doses not altering the behaviour of the treated animals.

[5] = mouse acetic acid writhing test; format: in vivo; details: for efficacy in writhing test, in words / number of writhes / Efficacy as analgesic (Morphine = 100) / percent inhibition: mouse; for Efficacy as analgesic (Morphine = 100) / percent inhibition: writhing; for ED50: sc, mouse writhing
Experimental: as §1
The claimed molecules, chosen as examples, were also assayed in mice by the writhing test (Table 4). The test is meant to evaluate the products capability to prevent mice writhes ensuing abdominal pains caused by i.p. injection of a 0.6% aqueous solution of acetic acid.
Acetic acid solution = 0.6% v/v.

in vivo = details: mouse
Text: as §2, §3

rat tail-flick test = format: in vivo
Experimental: as §1, §4, §5, §6
The test was performed using th

[6] = 40 mg/kg s.c., 15 min after treatment
[7] = 40 mg/kg s.c., 30 min after treatment
[8] = 40 mg/kg s.c., 45 min after treatment
[9] = 50 mg/kg s.c., 15 min after treatment
[10] = 50 mg/kg s.c., 30 min after treatment
[11] = 50 mg/kg s.c., 45 min after treatment
[12] = 60 mg/kg s.c., 15 min after treatment
[13] = 60 mg/kg s.c., 30 min after treatment
[14] = 60 mg/kg s.c., 45 min after treatment
[15] = 20 mg/kg i.p., 15 min after treatment
[16] = 20 mg/kg i.p., 30 min after treatment
[17] = 20 mg/kg i.p., 45 min after treatment
[18] = 25 mg/kg i.p., 15 min after treatment
[19] = 25 mg/kg i.p., 30 min after treatment
[20] = 25 mg/kg i.p., 45 min after treatment

For CCC(Oc1ccc(Cl)cc1)C(=O)O[C@H]1C[C@H]2CC[C@@H](C1)N2C (stereo partly drawn) [SM-21, 3α-Tropanyl 2-(p-chlorophenoxy)-butyrate], the paw-pressure ([1]; 15 min after treatment) was 92.8 ± 4.0 g, the paw-pressure ([1]; 30 min after treatment) was 110.0 ± 6.6 g and the paw-pressure ([1]; 45 min after treatment) was 64.0 ± 6.2 g. The paw-pressure ([2]; lesioned (NBM) rats, 15 min after treatment) was 75.1 ± 5.8 g, the paw-pressure ([2]; lesioned (NBM) rats, 30 min after treatment) was 68.3 ± 4.9 g and the paw-pressure ([2]; lesioned (NBM) rats, 45 min after treatment) was 67.2 ± 3.9 g. The paw-pressure ([2]; naive rats, 15 min after treatment) was 109.6 ± 4.8 g, the paw-pressure ([2]; naive rats, 30 min after treatment) was 87.5 ± 5.2 g and the paw-pressure ([2]; naive rats, 45 min after treatment) was 67.8 ± 4.4 g. The paw-pressure ([2]; sham rats, 15 min after treatment) was 104.9 ± 4.6 g, the paw-pressure ([2]; sham rats, 30 min after treatment) was 93.4 ± 5.3 g and the paw-pressure ([2]; sham rats, 45 min after treatment) was 63.9 ± 5.1 g. The “ANALGESIC ACTIVITY (degree of analgesia, latency on hot plate)” value ([3]; max. dose not affecting mice behaviour) was “++++ (Latency above 35" ++++-)”, the “analgesic effect (AUC up to 45 min) compared with reference analgesics” value ([3]; mouse hot plate, FIG. 5, always (s.c. and i.p.)) was “always more active than all reference analgesics including morphine” and the “Efficacy as analgesic (Morphine = 100), AUC (Area Under Curve)” value [3] was 111. The “Efficacy as analgesic (Morphine = 100), M.E. (Maximum Analgesic Effect)” value [3] was 111, the hot-plate latency ([3]; 40 mg/kg i.p., 15 min after treatment) was 36.7 ± 2.1 s and the hot-plate latency ([3]; 40 mg/kg i.p., 30 min after treatment) was 32.0 ± 2.2 s. For the same compound, the hot-plate latency ([3]; 40 mg/kg i.p., 45 min after treatment) was 25.9 ± 2.7 s, the hot-plate latency [3, 6] was 38.9 ± 2.9 s and the hot-plate latency [3, 7] was 31.3 ± 2.5 s. For the same compound, the hot-plate latency [3, 8] was 29.4 ± 3.3 s, the “rota-rod performance (number of falls in 30 s)” value (“rota-rod performance” for short) ([4]; 30 mg/kg s.c., 15 min after treatment) was 1.9 ± 0.3 falls in 30 s and the “rota-rod performance” value ([4]; 30 mg/kg s.c., 30 min after treatment) was 1.5 ± 0.5 falls in 30 s. For the same compound, the “rota-rod performance” value ([4]; 30 mg/kg s.c., 45 min after treatment) was 1.2 ± 0.5 falls in 30 s, the “rota-rod performance” value [4, 6] was 1.6 ± 0.6 falls in 30 s and the “rota-rod performance” value [4, 7] was 1.2 ± 0.4 falls in 30 s. The “rota-rod performance” value [4, 8] was 1.2 ± 0.4 falls in 30 s, the “rota-rod performance” value [4, 9] was 2.2 ± 0.4 falls in 30 s and the “rota-rod performance” value [4, 10] was 2.6 ± 0.5 falls in 30 s. For the same compound, the “rota-rod performance” value [4, 11] was 2.4 ± 0.5 falls in 30 s, the “rota-rod performance” value [4, 12] was 3.5 ± 0.5 falls in 30 s and the “rota-rod performance” value [4, 13] was 4.3 ± 0.4 falls in 30 s. The “rota-rod performance” value [4, 14] was 4.4 ± 0.6 falls in 30 s, the “activity in paw-pressure test, in words” value (rat paw-pressure test) was “almost equivalent analgesia” and the paw-pressure (rat paw-pressure test; [15]) was 93.1 ± 4.0 g. For the same compound, the paw-pressure (rat paw-pressure test; [16]) was 93.4 ± 5.4 g, the paw-pressure (rat paw-pressure test; [17]) was 92.3 ± 6.4 g and the “efficacy in writhing test, in words” value [5] was “slightly inferior to morphine”. The number of writhes ([5]; 40 mg/kg s.c.) was 11.4 ± 1.6, the “Efficacy as analgesic (Morphine = 100)” value ([5]; 40 mg/kg s.c.) was 90 and the percent inhibition ([5]; 40 mg/kg s.c.) was 67.3%. The ED50 [5] was 21.5 mg/kg and 47.4 µmol/kg, the LD50 (in vivo; sc) was 883 µmol/kg and the “activity in tail-flick test, in words” value (rat tail-flick test) was “active”. For the same compound, the tail-flick (rat tail-flick test; [15]) was 3.6 ± 0.2 s, the tail-flick (rat tail-flick test; [16]) was 4.6 ± 0.4 s and the tail-flick (rat tail-flick test; [17]) was 4.9 ± 0.4 s.

With CN(C)CCCN1c2ccccc2CCc2ccc(Cl)cc21 [Clomipramine HCl, reference compound] the “ED50 compared with claimed compounds” value ([3]; mouse hot plate) was “equivalent to those of the claimed compounds”, the “analgesic efficacy / degree of analgesia compared with claimed compounds” value ([3]; mouse hot plate) was “much lower degree of analgesia” and the “Efficacy as analgesic (Morphine = 100), AUC (Area Under Curve)” value [3] was 17. For the same compound, the “Efficacy as analgesic (Morphine = 100), M.E. (Maximum Analgesic Effect)” value [3] was 19, the hot-plate latency [3, 15] was 24.8 ± 2.8 s and the hot-plate latency [3, 16] was 25.2 ± 2.2 s. The hot-plate latency [3, 17] was 23.2 ± 2.1 s, the hot-plate latency ([3]; 20 mg/kg s.c., 15 min after treatment) was 17.4 ± 1.1 s and the hot-plate latency ([3]; 20 mg/kg s.c., 30 min after treatment) was 19.3 ± 0.9 s. The hot-plate latency ([3]; 20 mg/kg s.c., 45 min after treatment) was 16.5 ± 0.8 s, the “rota-rod performance” value ([4]; 25 mg/kg s.c., 15 min after treatment) was 2.4 ± 0.5 falls in 30 s and the “rota-rod performance” value ([4]; 25 mg/kg s.c., 30 min after treatment) was 2.1 ± 0.6 falls in 30 s. For the same compound, the “rota-rod performance” value ([4]; 25 mg/kg s.c., 45 min after treatment) was 2.1 ± 0.6 falls in 30 s, the “rota-rod performance” value ([4]; 45 mg/kg s.c., 15 min after treatment) was 2.8 ± 0.4 falls in 30 s and the “rota-rod performance” value ([4]; 45 mg/kg s.c., 30 min after treatment) was 3.6 ± 0.4 falls in 30 s. For the same compound, the “rota-rod performance” value ([4]; 45 mg/kg s.c., 45 min after treatment) was 3.5 ± 0.6 falls in 30 s, the “rota-rod performance” value [4, 9] was 1.8 ± 0.4 falls in 30 s and the “rota-rod performance” value [4, 10] was 1.8 ± 0.4 falls in 30 s. The “rota-rod performance” value [4, 11] was 1.5 ± 0.4 falls in 30 s, the “rota-rod performance” value [4, 12] was 1.5 ± 0.4 falls in 30 s and the “rota-rod performance” value [4, 13] was 2.6 ± 0.3 falls in 30 s. For the same compound, the “rota-rod performance” value [4, 14] was 3.1 ± 0.5 falls in 30 s, the NOAEL ([4]; mouse, in vivo, sc) was 20.2 mg/kg and the “activity in paw-pressure test, in words” value (rat paw-pressure test) was “almost equivalent analgesia”. The paw-pressure (rat paw-pressure test; [18]) was 85.0 ± 6.8 g, the paw-pressure (rat paw-pressure test; [19]) was 99.0 ± 6.6 g and the paw-pressure (rat paw-pressure test; [20]) was 91.7 ± 7.4 g. The “efficacy in writhing test, in words” value [5] was “far less efficacious”, the number of writhes ([5]; 20 mg/kg s.c.) was 18.2 ± 2.1 and the “Efficacy as analgesic (Morphine = 100)” value ([5]; 20 mg/kg s.c.) was 63. For the same compound, the percent inhibition ([5]; 20 mg/kg s.c.) was 46.8%, the ED50 [5] was 9.7 mg/kg and 27.6 µmol/kg and the LD50 (in vivo; iv) was 44 mg/kg and 125 µmol/kg. For the same compound, the “activity in tail-flick test, in words” value (rat tail-flick test) was “inactive”, the tail-flick (rat tail-flick test; [18]) was 2.9 ± 0.2 s and the tail-flick (rat tail-flick test; [19]) was 2.6 ± 0.1 s. For the same compound, the tail-flick (rat tail-flick test; [20]) was 2.6 ± 0.2 s.
